Experimental data from US20230391786A1, “cGAS INHIBITORS” (Eli Lilly and Company, priority 2022, published 2023).
Counter-ions that a name gives are not always drawn. Like-named read-outs stand apart in the source and are kept apart here.

Legend:
recombinant human cGAS = recombinant human cGAS (Homo sapiens (Human), UniProt Q8N884); test: In vitro inhibition assay of cGAS activity (cGAMP production, RapidFire mass spectrometry); type: biochemical; details: 10 nM recombinant human cGAS, 60 nM 75-bp dsDNA, ATP, GTP, room temperature 3 hours, read-out: IC50 (μM), In vitro inhibition assay for Compounds 95-348
Sequence of recombinant human cGAS (Q8N884 whole entry): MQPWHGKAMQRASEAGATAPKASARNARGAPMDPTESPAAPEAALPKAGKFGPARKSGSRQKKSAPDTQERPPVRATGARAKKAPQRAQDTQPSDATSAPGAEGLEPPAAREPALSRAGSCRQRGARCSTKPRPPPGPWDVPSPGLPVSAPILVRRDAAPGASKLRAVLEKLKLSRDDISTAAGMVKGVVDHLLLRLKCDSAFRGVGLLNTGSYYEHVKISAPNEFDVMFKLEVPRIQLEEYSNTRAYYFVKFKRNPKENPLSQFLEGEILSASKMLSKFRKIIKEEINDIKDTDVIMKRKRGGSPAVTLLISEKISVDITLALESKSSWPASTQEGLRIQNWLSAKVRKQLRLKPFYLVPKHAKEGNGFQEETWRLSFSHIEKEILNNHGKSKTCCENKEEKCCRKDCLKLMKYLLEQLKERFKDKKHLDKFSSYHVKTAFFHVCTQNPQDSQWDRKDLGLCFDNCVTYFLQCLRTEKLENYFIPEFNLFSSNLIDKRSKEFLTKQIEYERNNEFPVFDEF
Method in brief: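 Product cGAMP was quantified by RapidFire MS against a difluoro-cGAMP internal standard after a formic acid quench. The reaction contained 10 nM recombinant full-length human cGAS, 75-bp dsDNA (60 nM), ATP and GTP (50 μM) and ran for 3 h at room temperature. IC50 values came from 4-parameter nonlinear regression.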

[1] = test system: cGAS activity in THP1 cells (IFNb as marker); test: Cellular assay to measure cGAS activity (IFNb production in PMA-differentiated THP1 cells stimulated by RDG-Adenovirus-GFP); type: cell-based, human; details: PMA differentiated, RDG-Adenovirus-GFP 1000 MOI, IFNb AlphaLISA, overnight incubation, read-out: IC50 (μM), Cellular assay for Compounds 95-348
Description: Cellular assay to measure cGAS activity: Use THP1 cell line from ATCC to determine inhibition of cGAS activity by test compounds in human cells. Plate cells on 96-well plates at 0.2×10^6/well and differentiate with phorbol myristate acetate (PMA) at 37° C./5% CO2. After 24 hours, replace PMA containing media with media lacking PMA and further incubate overnight. Stimulate cells were then by RDG-Adenovirus-GFP (Vector Biolabs #1768) at 1000 MOI for 4 hours prior to the addition of test compounds. After overnight incubation, transfer 10 μL of the media from each well to a new plate for IFNb analysis as a marker for cGAS activity. Measure quantification of IFNb with an IFNb AlphaLISA Detection kit (Perkin Elmer AL3133F) by mixing the acceptor beads with the cell supernatant followed by the addition of the biotinylated antibody and donor beads. Measure the relative fluorescence signal produced from the interaction of the donor and acceptor beads by a PHERAStar AlphaLISA protocol and evaluate the inhibitory effect of a compound by plotting specific inhibition of IFNb production against log concentration of the test compound. Calculate IC50 values using a 4-parameter non-linear logistic equation (y=(S0+((SInf−S0)/(1+((qAC50/x)^nHill))))).

[2] = Homo sapiens, THP-1, THP1 cells

CC(=O)NCc1c(-c2cn[nH]c2)c2ccc(Cl)c(Cl)c2n1C [Example 134, N-[[6,7-Dichloro-1-methyl-3-(1H-pyrazol-4-yl)indol-2-yl]methyl]acetamide]
IC50 (recombinant human cGAS): 0.0282 µM
IC50 [1, 2]: 1.59 µM

CC(=O)Nc1cc(Cl)cc2c1c(-c1cn[nH]c1)cn2-c1cn(CCO)nn1 [Example 201, N-[6-Chloro-1-[1-(2-hydroxyethyl)triazol-4-yl]-3-(1H-pyrazol-4-yl)indol-4-yl]acetamide]
IC50 (recombinant human cGAS): 0.0777 µM
IC50 [1, 2]: 4.23 µM

C[C@H](O)C(=O)NCc1[nH]c2c(Cl)c(Cl)ccc2c1-c1cn[nH]c1 [Example 168, (S)—N-((6,7-Dichloro-3-(1H-pyrazol-4-yl)-1H-indol-2-yl)methyl)-2-hydroxypropanamide]
IC50 (recombinant human cGAS): 0.0463 µM
IC50 [1, 2]: 1 µM

O=C1NCC(C(=O)N2CCn3c(c(-c4cn[nH]c4)c4ccc(Cl)c(Cl)c43)C2)O1 (single isomer, unassigned) [Example 259, 5-[6,7-Dichloro-10-(1H-pyrazol-4-yl)-3,4-dihydro-1H-pyrazino[1,2-a]indole-2-carbonyl]oxazolidin-2-one]
IC50 (recombinant human cGAS): 0.0373 µM
IC50 ([1]; THP1 cells): 0.765 µM

NCCn1cc(-n2cc(-c3cn[nH]c3)c3ccc(Cl)cc32)nn1 [Example 228, 2-[4-[6-Chloro-3-(1H-pyrazol-4-yl)indol-1-yl]triazol-1-yl] ethanamine formic acid salt]
IC50 (recombinant human cGAS): 0.0493 µM
IC50 [1, 2]: 1.46 µM

O[C@H]1CC[C@@H](Nc2cc(Cl)c(Cl)c3[nH]cc(-c4cn[nH]c4)c23)C1 (single isomer, unassigned; isomer 2) [Example 210, Cis-3-[[6,7-Dichloro-3-(1H-pyrazol-4-yl)-1H-indol-4-yl]amino]cyclopentanol, isomer 2]
IC50 (recombinant human cGAS): 0.0365 µM
IC50 [1, 2]: 2.17 µM

CN1CCOC(C(=O)N2CCn3c(c(-c4cn[nH]c4)c4c(OCC#N)cc(Cl)c(Cl)c43)C2)C1 (centres unmarked) [Example 294, 2-((6,7-Dichloro-2-(4-methylmorpholine-2-carbonyl)-10-(1H-pyrazol-4-yl)-1,2,3,4-tetrahydropyrazino[1,2-a]indol-9-yl)oxy)acetonitrile]
IC50 (recombinant human cGAS): 0.0479 µM
IC50 [1, 2]: 0.366 µM

OCc1nnc(-c2[nH]c3c(Cl)c(Cl)ccc3c2-c2cn[nH]c2)o1 [Example 157, (5-(6,7-Dichloro-3-(1H-pyrazol-4-yl)-1H-indol-2-yl)-1,3,4-oxadiazol-2-yl)methanol]
IC50 (recombinant human cGAS): 0.0281 µM
IC50 [1, 2]: 0.331 µM

CCNc1cc(Cl)c(Cl)c2c1c(-c1cn[nH]c1)c1n2CCN(C(=O)CO)C1 [Example 148, 1-(6,7-Dichloro-9-(ethylamino)-10-(1H-pyrazol-4-yl)-3,4-dihydropyrazino[1,2-a]indol-2(1H)-yl)-2-hydroxyethan-1-one]
IC50 (recombinant human cGAS): 0.052 µM
IC50 [1, 2]: 1.54 µM

O=C(NCc1[nH]c2c(Cl)c(Cl)ccc2c1-c1cn[nH]c1)c1nnco1 [Example 165, N-[[6,7-Dichloro-3-(1H-pyrazol-4-yl)-1H-indol-2-yl]methyl]-1,3,4-oxadiazole-2-carboxamide]
IC50 (recombinant human cGAS): 0.0894 µM
IC50 [1, 2]: 1.32 µM

O=C(Nc1cc(Cl)c(Cl)c2c1c(-c1cn[nH]c1)c1n2CCN(C(=O)CN2CCOC2=O)C1)C(F)F [Example 274, N-[6,7-Dichloro-2-[2-(2-oxooxazolidin-3-yl)acetyl]-10-(1H-pyrazol-4-yl)-3,4-dihydro-1H-pyrazino[1,2-a]indol-9-yl]-2,2-difluoro-acetamide]
IC50 (recombinant human cGAS): 0.023 µM
IC50 [1, 2]: 3.55 µM

O=C(Nc1cc(Cl)c(Cl)c2[nH]cc(-c3cn[nH]c3)c12)C(O)CO (centres unmarked) [Example 185, N-[6,7-Dichloro-3-(1H-pyrazol-4-yl)-1H-indol-4-yl]-2,3-dihydroxy-propanamide]
IC50 (recombinant human cGAS): 0.077 µM
IC50 [1, 2]: 3.44 µM

N#CCOc1cc(Cl)c(Cl)c2c1c(-c1cn[nH]c1)c1n2CCN(C(=O)CN2CCOCC2=O)C1 [Example 290, 2-((6,7-Dichloro-2-(2-(3-oxomorpholino)acetyl)-10-(1H-pyrazol-4-yl)-1,2,3,4-tetrahydropyrazino[1,2-a]indol-9-yl)oxy)acetonitrile]
IC50 (recombinant human cGAS): 0.0321 µM
IC50 [1, 2]: 6.97 µM
